Data reported in patent publication US20230391845A1, “GLP-1, GIP AND GLUCAGON RECEPTOR TRIPLE AGONISTS” (priority 2020, published 2023).
*1 amine or outer side, *2 acyl side, *3 side chain or, on linkers, in order; H or OH if unused. Where a SMILES comes first, the peptide text is derived from it. Side-chain parts run from the residue outwards. [ ]: non-standard residue; d: D form. The star is where a group is joined. C20 diacid = O=C(O)CCCCCCCCCCCCCCCCCCC(=O)*; γGlu = O=C(O)[C@H](CCC(=O)[*:2])N[*:1]; εLys = N[C@@H](CCCCN[*:1])C(=O)[*:2]; AEEA = NCCOCCOCC(=O)O; Aib = CC(C)(N)C(=O)O

How the values were obtained:
human GIP receptor = target: T1, human GIP receptor (Homo sapiens, UniProt P48546); assay: In vitro functional potency (CRE luciferase; whole cells), human GIPR; assay type: cell-based; settings: BHK CRE luc2P hGIPR whole cells; Table 2; read-out: hGIPR CRE Luc EC50
T1 construct: expressed in transfected cells; host or cells: BHK cells (parent line BHKTS13) containing CRE luciferase
T1 sequence (P48546 22-466): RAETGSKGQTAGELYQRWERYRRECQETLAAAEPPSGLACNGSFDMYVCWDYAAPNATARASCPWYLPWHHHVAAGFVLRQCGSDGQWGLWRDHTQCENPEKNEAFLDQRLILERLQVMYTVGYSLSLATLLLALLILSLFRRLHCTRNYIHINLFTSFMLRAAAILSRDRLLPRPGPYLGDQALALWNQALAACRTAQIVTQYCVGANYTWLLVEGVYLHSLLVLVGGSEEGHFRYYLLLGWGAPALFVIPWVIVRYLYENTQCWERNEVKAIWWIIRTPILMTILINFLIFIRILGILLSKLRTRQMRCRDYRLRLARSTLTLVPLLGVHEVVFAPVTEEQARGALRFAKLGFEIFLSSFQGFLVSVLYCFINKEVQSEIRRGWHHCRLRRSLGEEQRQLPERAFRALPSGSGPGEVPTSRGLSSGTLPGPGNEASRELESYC

human GLP-1 receptor = target: T2, human GLP-1 receptor (Homo sapiens, UniProt P43220); assay: In vitro functional potency (CRE luciferase; whole cells), human GLP-1R; assay type: cell-based; settings: BHK CRE luc2P hGLP-1R whole cells; Table 2; read-out: hGLP-1R CRE Luc EC50
T2 construct: expressed in transfected cells; host or cells: BHK cells (parent line BHKTS13) containing CRE luciferase
Protocol: The purpose of this example is to test the functional activity, or potency, of the compounds in vitro at the human and mouse GLP-1, GIP, and Gcg receptors. The in vitro functional potency is the measure of target receptor activation in a whole cell assay.
In vitro functional potency was determined by measuring the response of the target receptor in a reporter gene assay in individual cell lines. The assay was performed in stably transfected BHK cell lines that expresses one of the following G-protein coupled receptors: human GLP-1 receptor, human GIP receptor, human Gcg receptor, mouse GLP-1 receptor, mouse GIP receptor, or mouse Gcg receptor; and where each cell line contains the DNA for the cAMP response element (CRE) coupled to a promoter and the gene for firefly luciferase (CRE luciferase). When the respective receptor is activated, it results in the production of cAMP, which in turn results in expression of the luciferase protein. When assay incubation is completed, luciferase substrate (luciferin) is added resulting in the enzymatic conversion of luciferin to oxyluciferin and producing bioluminescence. The luminescence is measured as the readout for the assay.
The cells lines used in these assays were BHK cells with BHKTS13 as a parent cell line. The cell lines were derived from a clone containing the CRE luciferase element and were established by further transfection with the respective receptor to obtain the relevant cell line.
The cells were cultured at 37° C. with 5% CO2 in Cell Culture Medium. They were aliquoted and stored in liquid nitrogen. The cells were kept in continuous culture and were seeded out the day before each assay.
GLP-1R and GcgR Cell Culture Medium consisted of DMEM medium with 10% FBS, 500 µg/mL G418, and 300 µg/mL hygromycin. GIPR Cell Culture Medium consisted of DMEM medium with 10% FBS, 400 µg/mL G418, and 300 µg/mL hygromycin. Assay Buffer consisted of DMEM w/o phenol red, 10 mM Hepes, 1× Glutamax, 1% ovalbumin, and 0.1% Pluronic F-68.
• 1) Cells were plated at 5000 cells/well and incubated overnight in the assay plate. • 2) Cells were washed once in DPBS. • 3) Stocks of the test compounds and reference compounds in concentrations ranging from 100-300 pM were diluted 1:150 in Assay Buffer.
The data from the microtiter plate reader was first regressed in an Excel in order to calculate the x-axis, log scale concentrations based on the individual test compound's stock concentration and the dilutions of the assay. […] The software performs a non-linear regression (log(agonist) vs response). A minimum of two replicates was measured for each sample. The reported values are averages of the replicates.

[1] = Pharmacokinetic study in minipigs, i.v. administration; set-up: species or system Göttingen minipigs; settings: female, Göttingen, minipig, in vivo, iv
Outline: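 Terminal half-life, reported as harmonic mean, came from non-compartmental fits of plasma levels measured by antibody assay or LCMS over up to 14 days. Dosing was i.v., typically 1.5-2 nmol/kg, through implanted caval catheters in fasted female Göttingen minipigs of 16-35 kg.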

T2 sequence (P43220 24-463): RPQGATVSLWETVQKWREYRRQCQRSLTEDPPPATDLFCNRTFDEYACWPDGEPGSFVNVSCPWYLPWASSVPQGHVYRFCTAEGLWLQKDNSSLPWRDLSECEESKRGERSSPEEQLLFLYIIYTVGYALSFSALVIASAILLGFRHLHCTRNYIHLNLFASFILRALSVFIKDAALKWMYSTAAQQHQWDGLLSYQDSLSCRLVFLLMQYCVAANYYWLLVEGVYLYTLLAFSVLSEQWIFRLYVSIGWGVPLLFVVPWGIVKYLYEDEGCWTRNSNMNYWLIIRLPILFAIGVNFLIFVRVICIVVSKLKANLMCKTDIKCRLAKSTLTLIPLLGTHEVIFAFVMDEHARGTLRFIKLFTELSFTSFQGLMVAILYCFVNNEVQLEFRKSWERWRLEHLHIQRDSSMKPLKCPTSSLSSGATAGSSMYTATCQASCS

| Compound | EC50 (human GIP receptor) [pM] | EC50 (human GLP-1 receptor) [pM] | half-life [1] [h] |
| --- | --- | --- | --- |
| CC[C@H](C)[C@H](NC(=O)[C@H](CO)NC(=O)[C@H](Cc1ccc(O)cc1)NC(=O)[C@H](CC(=O)O)NC(=O)[C@H](CO)NC(=O)[C@@H](NC(=O)[C@H](Cc1ccccc1)NC(=O)[C@@H](NC(=O)CNC(=O)[C@H](Cc1c[nH]cn1)NC(=O)C(C)(C)NC(=O)[C@@H](N)Cc1c[nH]cn1)[C@@H](C)O)[C@@H](C)O)C(=O)N[C@@H](Cc1ccc(O)cc1)C(=O)N[C@@H](CC(C)C)C(=O)N[C@@H](CCC(=O)O)C(=O)N[C@@H](CCCCNC(=O)[C@@H](N)CCCCNC(=O)[C@@H](N)CCCCNC(=O)CC[C@H](NC(=O)CCCCCCCCCCCCCCCCCCC(=O)O)C(=O)O)C(=O)N[C@@H](CCC(N)=O)C(=O)N[C@@H](C)C(=O)N[C@@H](C)C(=O)NC(C)(C)C(=O)N[C@@H](CCC(=O)O)C(=O)N[C@@H](Cc1ccccc1)C(=O)N[C@H](C(=O)N[C@@H](CCC(N)=O)C(=O)N[C@@H](Cc1c[nH]c2ccccc12)C(=O)N[C@@H](CC(C)C)C(=O)N[C@@H](CC(C)C)C(=O)N[C@@H](CCC(=O)O)C(=O)NCC(=O)NCC(=O)N1CCC[C@H]1C(=O)N[C@@H](CO)C(=O)N[C@@H](CO)C(=O)NCC(=O)N[C@@H](C)C(=O)N1CCC[C@H]1C(=O)N1CCC[C@H]1C(=O)N1CCC[C@H]1C(=O)N[C@@H](CO)C(N)=O)C(C)C [Compound No. 22] (H-H[Aib]HGTFTSDYSIYLEK([εLys-εLys-γGlu-C20 diacid])QAA[Aib]EFVQWLLEGGPSSGAPPPS-NH2; N-terminus assumed) | 7.1 | 2 | – |
| CC[C@H](C)[C@H](NC(=O)[C@H](CO)NC(=O)[C@H](Cc1ccc(O)cc1)NC(=O)[C@H](CC(=O)O)NC(=O)[C@H](CO)NC(=O)[C@@H](NC(=O)[C@H](Cc1ccccc1)NC(=O)[C@@H](NC(=O)CNC(=O)[C@H](Cc1c[nH]cn1)NC(=O)C(C)(C)NC(=O)[C@@H](N)Cc1c[nH]cn1)[C@@H](C)O)[C@@H](C)O)C(=O)N[C@@H](Cc1ccc(O)cc1)C(=O)N[C@@H](CC(C)C)C(=O)N[C@@H](CCC(=O)O)C(=O)N[C@@H](CCCCNC(=O)[C@@H](N)CCCCNC(=O)[C@@H](N)CCCCNC(=O)CC[C@H](NC(=O)CCCCCCCCCCCCCCCCCCC(=O)O)C(=O)O)C(=O)N[C@@H](CCC(N)=O)C(=O)N[C@@H](Cc1ccc(O)cc1)C(=O)N[C@@H](C)C(=O)NC(C)(C)C(=O)N[C@@H](CCC(=O)O)C(=O)N[C@@H](Cc1ccccc1)C(=O)N[C@H](C(=O)N[C@@H](CCC(N)=O)C(=O)N[C@@H](Cc1c[nH]c2ccccc12)C(=O)N[C@@H](CC(C)C)C(=O)N[C@@H](CC(C)C)C(=O)N[C@@H](CCC(=O)O)C(=O)NCC(=O)NCC(=O)N1CCC[C@H]1C(=O)N[C@@H](CO)C(=O)N[C@@H](CO)C(=O)NCC(=O)N[C@@H](C)C(=O)N1CCC[C@H]1C(=O)N1CCC[C@H]1C(=O)N1CCC[C@H]1C(=O)N[C@@H](CO)C(N)=O)C(C)C [Compound No. 24] (H-H[Aib]HGTFTSDYSIYLEK([εLys-εLys-γGlu-C20 diacid])QYA[Aib]EFVQWLLEGGPSSGAPPPS-NH2) | 7.7 | – | 82 |
| CC[C@H](C)[C@H](NC(=O)[C@H](CO)NC(=O)[C@H](Cc1ccc(O)cc1)NC(=O)[C@H](CC(=O)O)NC(=O)[C@H](CO)NC(=O)[C@@H](NC(=O)[C@H](Cc1ccccc1)NC(=O)[C@@H](NC(=O)CNC(=O)[C@H](Cc1c[nH]cn1)NC(=O)C(C)(C)NC(=O)[C@@H](N)Cc1c[nH]cn1)[C@@H](C)O)[C@@H](C)O)C(=O)N[C@@H](CC(C)C)C(=O)N[C@@H](CC(C)C)C(=O)N[C@@H](CCC(=O)O)C(=O)N[C@@H](CCCCNC(=O)[C@@H](N)CCCCNC(=O)[C@@H](N)CCCCNC(=O)CC[C@H](NC(=O)CCCCCCCCCCCCCCCCCCC(=O)O)C(=O)O)C(=O)N[C@@H](CCC(N)=O)C(=O)N[C@@H](C)C(=O)N[C@@H](C)C(=O)N[C@@H](CCC(=O)O)C(=O)N[C@@H](CCC(=O)O)C(=O)N[C@@H](Cc1ccccc1)C(=O)N[C@H](C(=O)N[C@@H](CCC(N)=O)C(=O)N[C@@H](Cc1c[nH]c2ccccc12)C(=O)N[C@@H](CC(C)C)C(=O)N[C@@H](CC(C)C)C(=O)N[C@@H](CCC(=O)O)C(=O)NCC(=O)NCC(=O)N1CCC[C@H]1C(=O)N[C@@H](CO)C(=O)N[C@@H](CO)C(=O)NCC(=O)N[C@@H](C)C(=O)N1CCC[C@H]1C(=O)N1CCC[C@H]1C(=O)N1CCC[C@H]1C(=O)N[C@@H](CO)C(N)=O)C(C)C [Compound No. 49] (H-H[Aib]HGTFTSDYSILLEK([εLys-εLys-γGlu-C20 diacid])QAAEEFVQWLLEGGPSSGAPPPS-NH2) | 2.1 | 1.4 | – |
| CC(C)C[C@H](NC(=O)[C@H](CC(C)C)NC(=O)[C@H](Cc1c[nH]c2ccccc12)NC(=O)[C@H](CCC(N)=O)NC(=O)[C@@H](NC(=O)[C@H](Cc1ccccc1)NC(=O)[C@H](CCC(=O)O)NC(=O)C(C)(C)NC(=O)[C@H](C)NC(=O)[C@H](C)NC(=O)[C@H](CCC(N)=O)NC(=O)[C@H](CCCCNC(=O)[C@@H](N)CCCCNC(=O)[C@@H](N)CCCCNC(=O)CC[C@H](NC(=O)CCCCCCCCCCCCCCCCCCC(=O)O)C(=O)O)NC(=O)[C@H](CCC(=O)O)NC(=O)[C@H](CC(C)C)NC(=O)[C@H](Cc1ccc(O)cc1)NC(=O)[C@H](CCCCN)NC(=O)[C@H](CO)NC(=O)[C@H](Cc1ccc(O)cc1)NC(=O)[C@H](CC(=O)O)NC(=O)[C@H](CO)NC(=O)[C@@H](NC(=O)[C@H](Cc1ccccc1)NC(=O)[C@@H](NC(=O)CNC(=O)[C@H](Cc1c[nH]cn1)NC(=O)C(C)(C)NC(=O)[C@@H](N)Cc1c[nH]cn1)[C@@H](C)O)[C@@H](C)O)C(C)C)C(=O)N[C@@H](CCC(=O)O)C(=O)NCC(=O)NCC(=O)N1CCC[C@H]1C(=O)N[C@@H](CO)C(=O)N[C@@H](CO)C(=O)NCC(=O)N[C@@H](C)C(=O)N1CCC[C@H]1C(=O)N1CCC[C@H]1C(=O)N1CCC[C@H]1C(=O)N[C@@H](CO)C(N)=O [Compound No. 36] (H-H[Aib]HGTFTSDYSKYLEK([εLys-εLys-γGlu-C20 diacid])QAA[Aib]EFVQWLLEGGPSSGAPPPS-NH2) | 9.3 | 1.8 | – |
| CC[C@H](C)[C@H](NC(=O)[C@H](CO)NC(=O)[C@H](Cc1ccc(O)cc1)NC(=O)[C@H](CC(=O)O)NC(=O)[C@H](CO)NC(=O)[C@@H](NC(=O)[C@H](Cc1ccccc1)NC(=O)[C@@H](NC(=O)CNC(=O)[C@H](Cc1c[nH]cn1)NC(=O)C(C)(C)NC(=O)[C@@H](N)Cc1c[nH]cn1)[C@@H](C)O)[C@@H](C)O)C(=O)N[C@@H](CC(C)C)C(=O)N[C@@H](CC(C)C)C(=O)N[C@@H](CCC(=O)O)C(=O)N[C@@H](CCCCNC(=O)COCCOCCNC(=O)COCCOCCNC(=O)CC[C@H](NC(=O)CCCCCCCCCCCCCCCCCCC(=O)O)C(=O)O)C(=O)N[C@@H](CCC(N)=O)C(=O)N[C@@H](C)C(=O)N[C@@H](C)C(=O)NC(C)(C)C(=O)N[C@@H](CCC(=O)O)C(=O)N[C@@H](Cc1ccccc1)C(=O)N[C@H](C(=O)N[C@@H](CCC(N)=O)C(=O)N[C@@H](Cc1c[nH]c2ccccc12)C(=O)N[C@@H](CC(C)C)C(=O)N[C@@H](CC(C)C)C(=O)N[C@@H](CCC(=O)O)C(=O)NCC(=O)NCC(=O)N1CCC[C@H]1C(=O)N[C@@H](CO)C(=O)N[C@@H](CO)C(=O)NCC(=O)N[C@@H](C)C(=O)N1CCC[C@H]1C(=O)N1CCC[C@H]1C(=O)N1CCC[C@H]1C(=O)N[C@@H](CO)C(N)=O)C(C)C [Compound No. 45] (H-H[Aib]HGTFTSDYSILLEK([AEEA-AEEA-γGlu-C20 diacid])QAA[Aib]EFVQWLLEGGPSSGAPPPS-NH2; N-terminus assumed) | 1.9 | 2.4 | – |
| CC[C@H](C)[C@H](NC(=O)[C@H](CO)NC(=O)[C@H](Cc1ccc(O)cc1)NC(=O)[C@H](CC(=O)O)NC(=O)[C@H](CO)NC(=O)[C@@H](NC(=O)[C@H](Cc1ccccc1)NC(=O)[C@@H](NC(=O)CNC(=O)[C@H](CCC(N)=O)NC(=O)C(C)(C)NC(=O)[C@@H](N)Cc1ccc(O)cc1)[C@@H](C)O)[C@@H](C)O)C(=O)N[C@@H](Cc1ccc(O)cc1)C(=O)N[C@@H](CC(C)C)C(=O)N[C@@H](CCC(=O)O)C(=O)N[C@@H](CCCCNC(=O)COCCOCCNC(=O)COCCOCCNC(=O)CC[C@H](NC(=O)CCCCCCCCCCCCCCCCCCC(=O)O)C(=O)O)C(=O)N[C@@H](CCC(N)=O)C(=O)N[C@@H](C)C(=O)N[C@@H](C)C(=O)NC(C)(C)C(=O)N[C@@H](CCC(=O)O)C(=O)N[C@@H](Cc1ccccc1)C(=O)N[C@H](C(=O)N[C@@H](CC(N)=O)C(=O)N[C@@H](Cc1c[nH]c2ccccc12)C(=O)N[C@@H](CC(C)C)C(=O)N[C@@H](CC(C)C)C(=O)N[C@@H](C)C(=O)NCC(=O)NCC(=O)N1CCC[C@H]1C(=O)N[C@@H](CO)C(=O)N[C@@H](CO)C(=O)NCC(=O)N[C@@H](C)C(=O)N1CCC[C@H]1C(=O)N1CCC[C@H]1C(=O)N1CCC[C@H]1C(=O)N[C@@H](CO)C(N)=O)C(C)C [Compound No. 15] (H-Y[Aib]QGTFTSDYSIYLEK([AEEA-AEEA-γGlu-C20 diacid])QAA[Aib]EFVNWLLAGGPSSGAPPPS-NH2) | 4.8 | 1.4 | – |
